Experimental data as given in ChEMBL document CHEMBL1697692, “Developing structure-activity relationships for the prediction of hepatotoxicity” (Chem Res Toxicol, 2010).

Tested on: Hepatotoxicity
Assay: Literature-mined public compounds from Greene et al multi-species hepatotoxicity modelling dataset

Compound	Hepatotoxicity
Cc1nnc(NS(=O)(=O)c2ccc(N)cc2)s1 [SULFAMETHIZOLE]	HH: Evidence of human hepatotoxicity
Nc1ccc(S(N)(=O)=O)cc1 [SULFANILAMIDE]	HH: Evidence of human hepatotoxicity
O=C(O)c1cc(/N=N/c2ccc(S(=O)(=O)Nc3ccccn3)cc2)ccc1O [SULFASALAZINE]	HH: Evidence of human hepatotoxicity
O=C1C(CC[S+]([O-])c2ccccc2)C(=O)N(c2ccccc2)N1c1ccccc1 (centres undefined) [SULFINPYRAZONE]	HH: Evidence of human hepatotoxicity
Nc1c2c(nc3ccccc13)CCCC2 [TACRINE]	AH: Evidence for animal hepatotoxicity but not tested in humans
Cc1nc(C)c2c(n1)N(Cc1ccc(-c3ccccc3-c3nnn[nH]3)cc1)C(=O)CC2 [TASOSARTAN]	HH: Evidence of human hepatotoxicity
C[C@H](CCC(=O)NCCS(=O)(=O)O)[C@H]1CC[C@H]2[C@@H]3[C@@H](O)C[C@@H]4C[C@H](O)CC[C@]4(C)[C@H]3CC[C@]12C [TAURURSODIOL]	HH: Evidence of human hepatotoxicity
CC[C@H]1OC(=O)[C@H](C)C(=O)[C@H](C)[C@@H](O[C@@H]2O[C@H](C)C[C@H](N(C)C)[C@H]2O)[C@](C)(OC)C[C@@H](C)C(=O)[C@H](C)[C@H]2N(CCCCn3cnc(-c4cccnc4)c3)C(=O)O[C@]12C [TELITHROMYCIN]	HH: Evidence of human hepatotoxicity
CC1CN(c2cc3c(cc2F)c(=O)c(C(=O)O)cn3-c2ccc(F)cc2F)CCN1 (centres undefined) [TEMAFLOXACIN]	HH: Evidence of human hepatotoxicity
CC(C)(C)c1ccc(C(O)CCCN2CCC(C(O)(c3ccccc3)c3ccccc3)CC2)cc1 (centres undefined) [TERFENADINE]	NE: No evidence of hepatotoxicity in any species
CCCCNc1ccc(C(=O)OCCN(C)C)cc1.Cl [TETRACAINE HYDROCHLORIDE]	NE: No evidence of hepatotoxicity in any species
CN(C)[C@@H]1C(O)=C(C(N)=O)C(=O)[C@@]2(O)C(O)=C3C(=O)c4c(O)cccc4[C@@](C)(O)[C@H]3C[C@@H]12 [TETRACYCLINE]	HH: Evidence of human hepatotoxicity
Cn1c(=O)c2[nH]cnc2n(C)c1=O.O [THEOPHYLLINE]	NE: No evidence of hepatotoxicity in any species
Cc1ncc(C[n+]2csc(CCO)c2C)c(N)n1 [THIAMINE ION]	NE: No evidence of hepatotoxicity in any species
CC(=N)S [THIOACETAMIDE]	AH: Evidence for animal hepatotoxicity but not tested in humans
CN1c2ccccc2C(NCCCCCCC(=O)O)c2ccc(Cl)cc2S1(=O)=O (centres undefined) [TIANEPTINE]	HH: Evidence of human hepatotoxicity
Clc1ccccc1CN1CCc2sccc2C1 [TICLOPIDINE]	HH: Evidence of human hepatotoxicity
CC(C)(C)NC[C@H](O)COc1nsnc1N1CCOCC1.O=C(O)/C=C\C(=O)O [TIMOLOL MALEATE]	HH: Evidence of human hepatotoxicity
NC[C@H]1O[C@H](O[C@H]2[C@H](O)[C@@H](O[C@H]3O[C@H](CO)[C@@H](O)[C@H](N)[C@H]3O)[C@H](N)C[C@@H]2N)[C@H](N)C[C@@H]1O [TOBRAMYCIN]	HH: Evidence of human hepatotoxicity
Cc1ccc(S(=O)(=O)NC(=O)NN2CCCCCC2)cc1 [TOLAZAMIDE]	HH: Evidence of human hepatotoxicity
Cc1ccc(C(=O)c2cc(O)c(O)c([N+](=O)[O-])c2)cc1 [TOLCAPONE]	HH: Evidence of human hepatotoxicity
Cc1ccc(C(=O)c2ccc(CC(=O)O)n2C)cc1 [TOLMETIN]	HH: Evidence of human hepatotoxicity

Compound	Hepatotoxicity
Cl.N[C@@H]1C[C@H]1c1ccccc1 [TRANYLCYPROMINE HYDROCHLORIDE]	NE: No evidence of hepatotoxicity in any species
Cl.O=c1n(CCCN2CCN(c3cccc(Cl)c3)CC2)nc2ccccn12 [TRAZODONE HYDROCHLORIDE]	HH: Evidence of human hepatotoxicity
CC1=C(/C=C/C(C)=C/C=C/C(C)=C/C(=O)O)C(C)(C)CCC1 [TRETINOIN]	HH: Evidence of human hepatotoxicity
ClC=C(Cl)Cl [TRICHLOROETHYLENE]	AH: Evidence for animal hepatotoxicity but not tested in humans
CN1CCN(CCCN2c3ccccc3Sc3ccc(C(F)(F)F)cc32)CC1 [TRIFLUOPERAZINE]	HH: Evidence of human hepatotoxicity
CN1C(=O)OC(C)(C)C1=O [TRIMETHADIONE]	HH: Evidence of human hepatotoxicity
COc1cc(C(=O)NCc2ccc(OCCN(C)C)cc2)cc(OC)c1OC.Cl [TRIMETHOBENZAMIDE HYDROCHLORIDE]	HH: Evidence of human hepatotoxicity
COc1cc(Cc2cnc(N)nc2N)cc(OC)c1OC [TRIMETHOPRIM]	HH: Evidence of human hepatotoxicity
CN(C)CCN(Cc1ccccc1)c1ccccn1.Cl [TRIPELENNAMINE HYDROCHLORIDE]	HH: Evidence of human hepatotoxicity
Cc1c(C)c2c(c(C)c1O)CCC(C)(COc1ccc(CC3SC(=O)NC3=O)cc1)O2 (centres undefined) [TROGLITAZONE]	HH: Evidence of human hepatotoxicity
CO[C@H]1C[C@H](O[C@H]2[C@H](C)[C@@H](O[C@@H]3O[C@H](C)C[C@H](N(C)C)[C@H]3OC(C)=O)[C@@H](C)C[C@@]3(CO3)C(=O)[C@H](C)[C@@H](OC(C)=O)[C@@H](C)[C@@H](C)OC(=O)[C@@H]2C)O[C@@H](C)[C@@H]1OC(C)=O [TROLEANDOMYCIN]	HH: Evidence of human hepatotoxicity
NC(CO)(CO)CO [TROMETHAMINE]	NE: No evidence of hepatotoxicity in any species
N[C@@H]1[C@H]2CN(c3nc4c(cc3F)c(=O)c(C(=O)O)cn4-c3ccc(F)cc3F)C[C@@H]12 [TROVAFLOXACIN]	HH: Evidence of human hepatotoxicity
Oc1ncc(N(CCCl)CCCl)c(O)n1 [URACIL MUSTARD]	HH: Evidence of human hepatotoxicity
CN[C@H](CC(C)C)C(=O)N[C@H]1C(=O)N[C@@H](CC(N)=O)C(=O)N[C@H]2C(=O)N[C@H]3C(=O)N[C@H](C(=O)N[C@H](C(=O)O)c4cc(O)cc(O)c4-c4cc3ccc4O)[C@H](O)c3ccc(c(Cl)c3)Oc3cc2cc(c3O[C@@H]2O[C@H](CO)[C@@H](O)[C@H](O)[C@H]2O[C@H]2C[C@](C)(N)[C@H](O)[C@H](C)O2)Oc2ccc(cc2Cl)[C@H]1O [VANCOMYCIN]	HH: Evidence of human hepatotoxicity
Nc1ncnc2c1ncn2[C@@H]1O[C@H](CO)[C@@H](O)[C@@H]1O [VIDARABINE]	NE: No evidence of hepatotoxicity in any species
CC[C@]1(O)C[C@@H]2CN(CCc3c([nH]c4ccccc34)[C@@](C(=O)OC)(c3cc4c(cc3OC)N(C)[C@H]3[C@@](O)(C(=O)OC)[C@H](OC(C)=O)[C@]5(CC)C=CCN6CC[C@]43[C@@H]65)C2)C1.O=S(=O)(O)O [VINBLASTINE SULFATE]	NE: No evidence of hepatotoxicity in any species
CC[C@]1(O)C[C@H]2CN(CCc3c([nH]c4ccccc34)[C@@](C(=O)OC)(c3cc4c(cc3OC)N(C=O)[C@H]3[C@@](O)(C(=O)OC)[C@H](OC(C)=O)[C@]5(CC)C=CCN6CC[C@]43[C@@H]65)C2)C1.O=S(=O)(O)O [VINCRISTINE SULFATE]	HH: Evidence of human hepatotoxicity
CCCCCCCCCCCCCCCC(=O)OC/C=C(C)/C=C/C=C(C)/C=C/C1=C(C)CCCC1(C)C [VITAMIN A PALMITATE]	AH: Evidence for animal hepatotoxicity but not tested in humans
CC(=O)CC(c1ccccc1)c1c(O)c2ccccc2oc1=O (centres undefined) [WARFARIN]	WE: Weak evidence (<10 case reports) of human hepatotoxicity
COc1cc(C(=O)NS(=O)(=O)c2ccccc2C)ccc1Cc1cn(C)c2ccc(NC(=O)OC3CCCC3)cc12 [ZAFIRLUKAST]	HH: Evidence of human hepatotoxicity
Nc1ccn([C@H]2CC[C@@H](CO)O2)c(=O)n1 [ZALCITABINE]	NE: No evidence of hepatotoxicity in any species

Compound	Hepatotoxicity
Cc1cn([C@H]2C[C@H](N=[N+]=[N-])[C@@H](CO)O2)c(=O)[nH]c1=O [ZIDOVUDINE]	HH: Evidence of human hepatotoxicity
CC(c1cc2ccccc2s1)N(O)C(N)=O (centres undefined) [ZILEUTON]	HH: Evidence of human hepatotoxicity
Cc1ccc(-c2nc3ccc(C)cn3c2CC(=O)N(C)C)cc1 [ZOLPIDEM]	WE: Weak evidence (<10 case reports) of human hepatotoxicity
Cc1cc(CC(=O)O)n(C)c1C(=O)c1ccc(Cl)cc1 [ZOMEPIRAC]	NE: No evidence of hepatotoxicity in any species
AURANOFIN	HH: Evidence of human hepatotoxicity
AUROTHIOGLUCOSE	HH: Evidence of human hepatotoxicity
BISMUTH SUBSALICYLATE	NE: No evidence of hepatotoxicity in any species
CADMIUM DICHLORIDE	AH: Evidence for animal hepatotoxicity but not tested in humans
CARBOPLATIN	HH: Evidence of human hepatotoxicity
CISPLATIN	HH: Evidence of human hepatotoxicity
CYANOCOBALAMIN	NE: No evidence of hepatotoxicity in any species
DICHROMATE	AH: Evidence for animal hepatotoxicity but not tested in humans
FERROUS SULFATE	NE: No evidence of hepatotoxicity in any species
GADOLINIUM HYDROCHLORIDE	AH: Evidence for animal hepatotoxicity but not tested in humans
GALLIUM NITRATE HYDRATE	NE: No evidence of hepatotoxicity in any species
GENTAMICIN	NE: No evidence of hepatotoxicity in any species
LACTOSE, ANHYDROUS	NE: No evidence of hepatotoxicity in any species
MERCURIC CHLORIDE	AH: Evidence for animal hepatotoxicity but not tested in humans
POTASSIUM DICHROMATE	AH: Evidence for animal hepatotoxicity but not tested in humans
TRANSPLATIN	AH: Evidence for animal hepatotoxicity but not tested in humans
